Reference: US20250026778A1 (TIUMBIO CO., LTD., priority 2021, published 2025)

molecular target: T1, his-galectin-3 (Homo sapiens, UniProt P17931); experiment: TR-FRET assay (in vitro galectin-3 binding inhibitory activity test); settings: Table 1; compound at 20 μM; 60 nM his-galectin-3, 15 nM biotin-ASF; read-out: % Inhibitory activity (at 20 μM)
T1 construct: purchased Abcam
Procedure, shortened: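 Compound is premixed with his-galectin-3 (60 nM final), then biotin-ASF (15 nM), Tb anti-His antibody (2 nM) and streptavidin-d2 (20 nM) are added. After at least 3.5 hours at RT in HEPES/NaCl buffer with Tween 20 and BSA, TR-FRET is read at 615/665 nm. DMSO serves as the uninhibited control, ASF omission as background.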

T1 sequence (P17931 whole entry): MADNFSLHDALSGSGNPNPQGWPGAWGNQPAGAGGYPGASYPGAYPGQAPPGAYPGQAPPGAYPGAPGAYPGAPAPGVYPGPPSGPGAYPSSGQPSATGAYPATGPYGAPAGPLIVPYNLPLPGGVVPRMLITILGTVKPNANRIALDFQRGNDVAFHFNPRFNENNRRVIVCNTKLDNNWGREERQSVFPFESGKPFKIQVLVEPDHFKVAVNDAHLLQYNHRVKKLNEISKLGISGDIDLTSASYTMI

inhibition at 20 µM [%]	SMILES
25 to 50	O=C(Cc1ccc(Oc2ccccc2)cc1)N[C@@H]1CCO[C@]12O[C@H](CO)[C@H](O)[C@H](n1cc(-c3cc(F)c(F)c(F)c3)nn1)[C@H]2O [Compound A148, N-((4R,5S,7R,8R,9S,10R)-8,10-dihydroxy-7-(hydroxymethyl)-9-(4-(3,4,5-trifluorophenyl)-1H-1,2,3-triazol-1-yl)-1,6-dioxaspiro[4.5]decan-4-yl)-2-(4-phenoxyphenyl)acetamide]
> 75	O=C(N[C@@H]1CCO[C@]12O[C@H](CO)[C@H](O)[C@H](n1cc(-c3cc(F)c(F)c(F)c3)nn1)[C@H]2O)c1cccc(Br)c1 [Compound A150, 3-bromo-N-((4R,5S,7R,8R,9S,10R)-8,10-dihydroxy-7-(hydroxymethyl)-9-(4-(3,4,5-trifluorophenyl)-1H-1,2,3-triazol-1-yl)-1,6-dioxaspiro[4.5]decan-4-yl)benzamide]
50 to 75	O=C(N[C@@H]1CCO[C@]12O[C@H](CO)[C@H](O)[C@H](n1cc(-c3cc(F)c(F)c(F)c3)nn1)[C@H]2O)c1cccc(C(F)(F)F)c1 [Compound A152]

Continued, compound first:

SMILES	inhibition at 20 µM [%]
O=C(N[C@@H]1CCO[C@]12O[C@H](CO)[C@H](O)[C@H](n1cc(-c3cc(F)c(F)c(F)c3)nn1)[C@H]2O)C(F)(F)c1ccccc1 [Compound A147, N-((4R,5S,7R,8R,9S,10R)-8,10-dihydroxy-7-(hydroxymethyl)-9-(4-(3,4,5-trifluorophenyl)-1H-1,2,3-triazol-1-yl)-1,6-dioxaspiro[4.5]decan-4-yl)-2,2-difluoro-2-phenylacetamide]	< 25
O=C(N[C@@H]1CCO[C@]12O[C@H](CO)[C@H](O)[C@H](n1cc(-c3cc(F)c(F)c(F)c3)nn1)[C@H]2O)c1ccc2cc(Cl)ccc2c1 [Compound A149, 6-chloro-N-((4R,5S,7R,8R,9S,10R)-8,10-dihydroxy-7-(hydroxymethyl)-9-(4-(3,4,5-trifluorophenyl)-1H-1,2,3-triazol-1-yl)-1,6-dioxaspiro[4.5]decan-4-yl)-2-naphthamide]	50 to 75
O=C(Cc1cccc(Br)c1)N[C@@H]1CCO[C@]12O[C@H](CO)[C@H](O)[C@H](n1cc(-c3cc(F)c(F)c(F)c3)nn1)[C@H]2O [Compound A151, 2-(3-bromophenyl)-N-((4R,5S,7R,8R,9S,10R)-8,10-dihydroxy-7-(hydroxymethyl)-9-(4-(3,4,5-trifluorophenyl)-1H-1,2,3-triazol-1-yl)-1,6-dioxaspiro[4.5]decan-4-yl)acetamide]	> 75

same assay, conditions: Table 2; compound at 20 μM; 60 nM his-galectin-3, 15 nM biotin-ASF; read-out: % Inhibitory activity (at 20 μM)

inhibition at 20 µM [%]	SMILES
< 25	OC[C@H]1O[C@]2(OCC[C@H]2n2ccnn2)[C@H](O)[C@@H](n2cc(-c3cc(F)c(F)c(F)c3)nn2)[C@H]1O [Compound A153, (4R,5S,7R,8R,9S,10R)-7-(hydroxymethyl)-4-(1H-1,2,3-triazol-1-yl)-9-(4-(3,4,5-trifluorophenyl)-1H-1,2,3-triazol-1-yl)-1,6-dioxaspiro[4.5]decane-8,10-diol]
50 to 75	O=C(N[C@@H]1CCO[C@]12O[C@H](CO)[C@H](O)[C@H](n1cc(-c3cc(F)c(F)c(F)c3)nn1)[C@H]2O)c1cc2cccc(Cl)c2s1 [Compound A159, 7-chloro-N-((4R,5S,7R,8R,9S,10R)-8,10-dihydroxy-7-(hydroxymethyl)-9-(4-(3,4,5-trifluorophenyl)-1H-1,2,3-triazol-1-yl)-1,6-dioxaspiro[4.5]decan-4-yl)benzo[b]thiophene-2-carboxamide]
50 to 75	O=C(N[C@@H]1CCO[C@]12O[C@H](CO)[C@H](O)[C@H](n1cc(-c3cc(F)c(F)c(F)c3)nn1)[C@H]2O)C1CCCc2ccccc21 (stereo partly drawn) [Compound A160, N-((4R,5S,7R,8R,9S,10R)-8,10-dihydroxy-7-(hydroxymethyl)-9-(4-(3,4,5-trifluorophenyl)-1H-1,2,3-triazol-1-yl)-1,6-dioxaspiro[4.5]decan-4-yl)-1,2,3,4-tetrahydronaphthalene-1-carboxamide]
> 75	O=C(N[C@@H]1CCO[C@]12O[C@H](CO)[C@H](O)[C@H](n1cc(-c3cc(F)c(F)c(F)c3)nn1)[C@H]2O)c1coc2ccccc12 [Compound A161, N-((4R,5S,7R,8R,9S,10R)-8,10-dihydroxy-7-(hydroxymethyl)-9-(4-(3,4,5-trifluorophenyl)-1H-1,2,3-triazol-1-yl)-1,6-dioxaspiro[4.5]decan-4-yl)benzofuran-3-carboxamide]
50 to 75	O=C(N[C@@H]1CCO[C@]12O[C@H](CO)[C@H](O)[C@H](n1cc(-c3cc(F)c(F)c(F)c3)nn1)[C@H]2O)C1CCc2ccccc21 (stereo partly drawn) [Compound A163, N-((4R,5S,7R,8R,9S,10R)-8,10-dihydroxy-7-(hydroxymethyl)-9-(4-(3,4,5-trifluorophenyl)-1H-1,2,3-triazol-1-yl)-1,6-dioxaspiro[4.5]decan-4-yl)-2,3-dihydro-1H-indene-1-carboxamide]
50 to 75	O=C(N[C@@H]1CCO[C@]12O[C@H](CO)[C@H](O)[C@H](n1cc(-c3cc(F)c(F)c(F)c3)nn1)[C@H]2O)c1cccc(-c2cccc(F)c2)c1 [Compound A165, N-((4R,5S,7R,8R,9S,10R)-8,10-dihydroxy-7-(hydroxymethyl)-9-(4-(3,4,5-trifluorophenyl)-1H-1,2,3-triazol-1-yl)-1,6-dioxaspiro[4.5]decan-4-yl)-3′-fluoro-[1,1′-biphenyl]-3-carboxamide]
50 to 75	O=C(N[C@@H]1CCO[C@]12O[C@H](CO)[C@H](O)[C@H](n1cc(-c3cc(F)c(F)c(F)c3)nn1)[C@H]2O)c1cccc(-c2cccc(Cl)c2)c1 [Compound A166, 3′-chloro-N-((4R,5S,7R,8R,9S,10R)-8,10-dihydroxy-7-(hydroxymethyl)-9-(4-(3,4,5-trifluorophenyl)-1H-1,2,3-triazol-1-yl)-1,6-dioxaspiro[4.5]decan-4-yl)-[1.1′-biphenyl]-3-carboxamide]

The remaining lines, values behind:

SMILES	inhibition at 20 µM [%]
O=C(N[C@@H]1CCO[C@]12O[C@H](CO)[C@H](O)[C@H](n1cc(-c3cc(F)c(F)c(F)c3)nn1)[C@H]2O)c1sc2ccccc2c1Cl [Compound A156, 3-chloro-N-((4R,5S,7R,8R,9S,10R)-8,10-dihydroxy-7-(hydroxymethyl)-9-(4-(3,4,5-trifluorophenyl)-1H-1,2,3-triazol-1-yl)-1,6-dioxaspiro[4.5]decan-4-yl)benzo[b]thiophene-2-carboxamide]	50 to 75
O=C(N[C@@H]1CCO[C@]12O[C@H](CO)[C@H](O)[C@H](n1cc(-c3cc(F)c(F)c(F)c3)nn1)[C@H]2O)c1csc2ccccc12 [Compound A157, N-((4R,5S,7R,8R,9S,10R)-8,10-dihydroxy-7-(hydroxymethyl)-9-(4-(3,4,5-trifluorophenyl)-1H-1,2,3-triazol-1-yl)-1,6-dioxaspiro[4.5]decan-4-yl)benzo[b]thiophene-3-carboxamide]	> 75
O=C(N[C@@H]1CCO[C@]12O[C@H](CO)[C@H](O)[C@H](n1cc(-c3cc(F)c(F)c(F)c3)nn1)[C@H]2O)c1cccc2c1CCCC2 [Compound A158, N-((4R,5S,7R,8R,9S,10R)-8,10-dihydroxy-7-(hydroxymethyl)-9-(4-(3,4,5-trifluorophenyl)-1H-1,2,3-triazol-1-yl)-1,6-dioxaspiro[4.5]decan-4-yl)-5,6,7,8-tetrahydronaphthalene-1-carboxamide]	50 to 75
O=C(N[C@@H]1CCO[C@]12O[C@H](CO)[C@H](O)[C@H](n1cc(-c3cc(F)c(F)c(F)c3)nn1)[C@H]2O)c1cccc2c1CCC2 [Compound A162, N-((4R,5S,7R,8R,9S,10R)-8,10-dihydroxy-7-(hydroxymethyl)-9-(4-(3,4,5-trifluorophenyl)-1H-1,2,3-triazol-1-yl)-1,6-dioxaspiro[4.5]decan-4-yl)-2,3-dihydro-1H-indene-4-carboxamide]	50 to 75
O=C(N[C@@H]1CCO[C@]12O[C@H](CO)[C@H](O)[C@H](n1cc(-c3cc(F)c(F)c(F)c3)nn1)[C@H]2O)c1cccc(-c2ccccc2F)c1 [Compound A164, N-((4R,5S,7R,8R,9S,10R)-8,10-dihydroxy-7-(hydroxymethyl)-9-(4-(3,4,5-trifluorophenyl)-1H-1,2,3-triazol-1-yl)-1,6-dioxaspiro[4.5]decan-4-yl)-2′-fluoro-[1,1′-biphenyl]-3-carboxamide]	> 75

same assay, conditions: Table 3, found values; compound at 20 μM; 60 nM his-galectin-3, 15 nM biotin-ASF; read-out: % Inhibitory activity (at 20 μM)

inhibition at 20 µM [%]	SMILES
69.9	O=C(N[C@@H]1CCO[C@]12O[C@H](CO)[C@H](O)[C@H](n1cc(-c3cc(F)c(F)c(F)c3)nn1)[C@H]2O)c1cccc2c1CCC2 [Compound A162, N-((4R,5S,7R,8R,9S,10R)-8,10-dihydroxy-7-(hydroxymethyl)-9-(4-(3,4,5-trifluorophenyl)-1H-1,2,3-triazol-1-yl)-1,6-dioxaspiro[4.5]decan-4-yl)-2,3-dihydro-1H-indene-4-carboxamide]

same assay, conditions: read-out: % Inhibitory activity (at 20 μM), Table 1; compound at 20 μM; 60 nM his-galectin-3, 15 nM biotin-ASF

SMILES	inhibition at 20 µM [%]
O=C(Cc1ccccc1)N[C@@H]1CCO[C@]12O[C@H](CO)[C@H](O)[C@H](n1cc(-c3cc(F)c(F)c(F)c3)nn1)[C@H]2O [Compound A146, N-((4R,5S,7R,8R,9S,10R)-8,10-dihydroxy-7-(hydroxymethyl)-9-(4-(3,4,5-trifluorophenyl)-1H-1,2,3-triazol-1-yl)-1,6-dioxaspiro[4.5]decan-4-yl)-2-phenylacetamide]	25 to 50

same assay, conditions: read-out: % Inhibitory activity (at 20 μM), Table 2; compound at 20 μM; 60 nM his-galectin-3, 15 nM biotin-ASF

SMILES	inhibition at 20 µM [%]
OC[C@H]1O[C@]2(OCC[C@H]2n2cc(-c3ccccc3)nn2)[C@H](O)[C@@H](n2cc(-c3cc(F)c(F)c(F)c3)nn2)[C@H]1O [Compound A154, (4R,5S,7R,8R,9S,10R)-7-(hydroxymethyl)-4-(4-phenyl-1H-1,2,3-triazol-1-yl)-9-(4-(3,4,5-trifluorophenyl)-1H-1,2,3-triazol-1-yl)-1,6-dioxaspiro[4.5]decane-8,10-diol]	25 to 50
COc1cccc(CN[C@@H]2CCO[C@]23O[C@H](CO)[C@H](O)[C@H](n2cc(-c4cc(F)c(F)c(F)c4)nn2)[C@H]3O)c1 [Compound A155, (4R,5S,7R,8R,9S,10R)-7-(hydroxymethyl)-4-((3-methoxylbenzyl)amino)-9-(4-(3,4,5-trifluorophenyl)-1H-1,2,3-triazol-1-yl)-1,6-dioxaspiro[4.5]decane-8,10-diol]	< 25

same assay, conditions: read-out: % Inhibitory activity (at 20 μM), Table 3, found values; compound at 20 μM; 60 nM his-galectin-3, 15 nM biotin-ASF

SMILES	inhibition at 20 µM [%]
O=C(Cc1ccccc1)N[C@@H]1CCO[C@]12O[C@H](CO)[C@H](O)[C@H](n1cc(-c3cc(F)c(F)c(F)c3)nn1)[C@H]2O [Compound A146, N-((4R,5S,7R,8R,9S,10R)-8,10-dihydroxy-7-(hydroxymethyl)-9-(4-(3,4,5-trifluorophenyl)-1H-1,2,3-triazol-1-yl)-1,6-dioxaspiro[4.5]decan-4-yl)-2-phenylacetamide]	40.7
